Assay results published in patent publication US8158605B2, “Azacytidine analogues and uses thereof” (Mount Sinai School of Medicine, priority 2007, dated 2012).

Columns and labels:
[1] = test system: U937, HL60 and K562 cells; assay: Differentiating induction (NBT reduction, benzidine staining); type: cell-based, human; settings: repeated exposure for 11 (HL60) or 14 (U937, K562) days
Protocol: Cell differentiation was studied in terms of morphology. […] After initial treatment on day 0, cells were exposed to the new portions of drugs on day 4, 7, and 10. The differentiation was evaluated by NBT reduction assay (U937 and HL60) or by benzidine staining (K562).

[2] = Metabolic stability in pooled human plasma at 37° C.; type: in vitro ADME
Protocol: The mixture was incubated in a shaking water batch at 37° C. Aliquots (100 μl) of the incubation solutions were withdrawn in triplicate (n=3) at the designed incubation period (0, 15, 30, 60 and 120 minutes), and plasma protein was immediately precipitated using acetonitrile containing 0.1% formic acid (300 μl). […] After centrifugation, the supernatant was directly introduced for LC-MS-MS analysis.

[3] = test system: NFκB; assay: LPS stimulated NFκB luciferase reporter activity in U937 cells; type: cell-based, human; settings: 10 nM, LPS 1 μg/ml, 1, 3 or 6 hours, compared to DMSO treated control
Protocol: NFκB-luciferase reporter genes were used to determine the influence of Aza-C and 5-Aza-C-5′-elaidic acid on NFκB-induced luciferase activity in a human monocytic cell line U937, stably transfected with a luciferase reporter containing three NFκB-binding sites. The induction of NFκB was performed using lipopolysaccharide (LPS) at 1 μg/ml for 30 minutes prior to the addition of Aza-C or 5-Aza-C-5′-elaidic acid in the concentrations 10 nM to the medium. The cells were cultured in RPMI-1640 medium including 10% fetal bovine serum. Before stimulation with LPS the cells were transferred to medium containing only 2% fetal bovine serum. Luciferase activity was measured by imaging in an IVIS imaging System 100 (Xenogen Corp., USA) after 1, 3 or 6 hours. The LPS stimulation increased with time over the 6 hours followed in the DMSO treated control cells. […] Generally, a positive stimulation of NFκB as observed for azacytidine is not positive, and it is positive that the LPS stimulation is not further increased by 5′Aza-C-5′-elaidic acid.

[4] = test system: breast carcinoma cell line MT-3; assay: MTT cytotoxicity; type: cell-based; settings: MT-3 breast carcinoma, 24 hours
Protocol: (§1) The cytotoxicity of Aza-C and 5-Aza-C-5′-elaidic acid was determined in a breast cancer cell line MT-3 and the adriablastin resistant cell line MT-3/ADR. The MT-3/ADR overexpress the MDR-1/p-glycoprotein. […] The cells were incubated for 24 hours. […] Six wells were used per test concentration. The cells were incubated with test compound for 24 hours. […] Similar activity was obtained for Aza-C and 5-Aza-C-5′-elaidic acid in the MT-3 breast carcinoma cell line, but in the MT-3/ADR resistant cell line the activity of Aza-C was lost. […] This may be of importance in the treatment of resistant cancer.

[5] = test system: MT-3/ADR resistant breast carcinoma; assay: MTT cytotoxicity; type: cell-based; settings: MDR1, MT-3/ADR resistant breast carcinoma (overexpress MDR-1/p-glycoprotein), 24 hours
Protocol: as §1

[6] = test system: HL60, K562, and U937 cells; assay: Apoptosis induction in leukemia cells (AO/EB microscopy, Annexin-V/PI flow cytometry); type: cell-based, human; settings: 0.5-4 μM, 24 hours; AO/EB staining and Annexin-V/PI flow cytometry
Protocol: Apoptotic cells were defined using morphological criteria and fluorescence-activated cell sorting (FACS) after staining with Annexin V-FITC. For morphologic analysis, 1 μl of stock solution containing 100 μg/ml AO and 100 μg/ml EB was added to 25 μl cells suspension. The apoptitic cells and apoptotic bodies were analyzed with the aid of a fluorescence microscopy. The percentage of apoptotic cells was calculated after counting total 300 cells. For FACS analysis, […] to 5×10^6 cells were washed with PBS and then labeled with Annexin V-FICS and propidium iodide (PI) in medium-binding reagent according to the Annexin V-FITC apoptosis detection kit instruction provided by the manufacturer. Fluorescent signals of FITC and PI were detected, respectively, at 518 nm and at 620 nm on FACSCAN (Becton Dickinson, San Jose, Calif.). […] The data was analyzed by the CellQuest program (Becton Dickinson). For each analysis, 10,000 cells events were recorded.
The percentage of apoptotic cells was determined with the aid of a fluoresence microscope after staining with acridine orange and ethidium bromide (See FIG. 2A). […] The percentage of apoptotic cells was determined by flow cytometry using Annexin-V and PI staining. […] (See FIGS. 2a and 2b)

[7] = test system: Hela cervix carcinoma cells; assay: MTT cytotoxicity with or without nucleoside transport inhibitor dipyridamole; type: cell-based
Protocol: Dipyridamole was used as an inhibitor of the equilibrative nucleoside transporters hENT1 and hENT2. […] The cells were pre-incubated for 24 hours. Dipyridamole (10 μM) was added to the cells 30 minutes prior to the addition of the test compounds. […] Six wells were used per test concentration. The cells were incubated with test compound for 72 hours.

SMILES: CCCCCCCC/C=C/CCCCCCCC(=O)OC[C@H]1O[C@@H](n2cnc(N)nc2=O)[C@H](O)[C@@H]1O [CP, 5-azacytidine 5′-elaidate]
- differentiation induction [1]: did not induce significant differentiation
- half-life at 0.1 μM ([2]; 0.1 μM): 161 min
- % Remaining of initial (mean ± SD, n = 3) ([2]; 0.1 μM, 0 min): 100%
- % Remaining of initial (mean ± SD, n = 3) ([2]; 0.1 μM, 15 min): 95.8 ± 3.0%
- % Remaining of initial (mean ± SD, n = 3) ([2]; 0.1 μM, 30 min): 95.0 ± 2.0%
- % Remaining of initial (mean ± SD, n = 3) ([2]; 0.1 μM, 60 min): 92.1 ± 3.4%
- % Remaining of initial (mean ± SD, n = 3) ([2]; 0.1 μM, 120 min): 59.0 ± 1.6%
- half-life at 1 μM ([2]; 1 μM): 130 min
- % Remaining of initial (mean ± SD, n = 3) ([2]; 1 μM, 0 min): 100%
- % Remaining of initial (mean ± SD, n = 3) ([2]; 1 μM, 15 min): 93.3 ± 1.1%
- % Remaining of initial (mean ± SD, n = 3) ([2]; 1 μM, 30 min): 88.9 ± 1.1%
- % Remaining of initial (mean ± SD, n = 3) ([2]; 1 μM, 60 min): 79.8 ± 2.6%
- % Remaining of initial (mean ± SD, n = 3) ([2]; 1 μM, 120 min): 52.5 ± 3.1%
- half-life at 3 μM ([2]; 3 μM): 141 min
- % Remaining of initial (mean ± SD, n = 3) ([2]; 3 μM, 0 min): 100%
- % Remaining of initial (mean ± SD, n = 3) ([2]; 3 μM, 15 min): 99.0 ± 3.5%
- % Remaining of initial (mean ± SD, n = 3) ([2]; 3 μM, 30 min): 96.0 ± 3.0%
- % Remaining of initial (mean ± SD, n = 3) ([2]; 3 μM, 60 min): 85.4 ± 3.4%
- % Remaining of initial (mean ± SD, n = 3) ([2]; 3 μM, 120 min): 56.6 ± 1.6%
- half-life at 10 μM ([2]; 10 μM): 86 min
- % Remaining of initial (mean ± SD, n = 3) ([2]; 10 μM, 0 min): 100%
- % Remaining of initial (mean ± SD, n = 3) ([2]; 10 μM, 15 min): 96.0 ± 2.0%
- % Remaining of initial (mean ± SD, n = 3) ([2]; 10 μM, 30 min): 93.1 ± 0.0%
- % Remaining of initial (mean ± SD, n = 3) ([2]; 10 μM, 60 min): 77.1 ± 3.1%
- % Remaining of initial (mean ± SD, n = 3) ([2]; 10 μM, 120 min): 39.1 ± 1.7%
- half-life at 30 μM ([2]; 30 μM): 109 min
- % Remaining of initial (mean ± SD, n = 3) ([2]; 30 μM, 0 min): 100%
- % Remaining of initial (mean ± SD, n = 3) ([2]; 30 μM, 15 min): 97.7 ± 3.5%
- % Remaining of initial (mean ± SD, n = 3) ([2]; 30 μM, 30 min): 90.4 ± 2.6%
- % Remaining of initial (mean ± SD, n = 3) ([2]; 30 μM, 60 min): 78.5 ± 1.7%
- % Remaining of initial (mean ± SD, n = 3) ([2]; 30 μM, 120 min): 47.4 ± 1.1%
- LPS stimulated NFκB luciferase activity [3]: did not differ from the DMSO control
- IC50 [4]: 17 ± 15.7 µM
- IC50 [5]: 14.8 ± 12.8 µM
- number of apoptotic cells [6]: concentration-dependent increase in the number of apoptotic cells
- cytotoxic activity increased when hENT1 and hENT2 blocked by dipyridamole ([7]; Hela, with vs without dipyridamole): 50 fold
- IC50 ([7]; Homo sapiens, HeLa, 72 h, Hela with dipyridamole (10 μM), MTT): 230 nM
